Measurements as given in patent US20020193283A1, “Inhibitors of prenyl-protein transferase” (priority 2000, published 2002).

Test: the assays disclosed below (unspecified, Examples 10-17)
Settings: assays not specified

Cc1ncc(CN2CCN(C(=O)OC(C)(C)C)CC2)n1Cc1ccc(C#N)c(Oc2cccc(OCCO)c2)c1 [Example 1 Step G, 1-(tert-butoxycarbonyl)-4-[1-(3-((3-(2-hydroxyethoxy)phenyl)oxy)-4-cyanobenzyl)-2-methyl-5-imidazolylmethyl]piperazine]
activity in the assays disclosed below: active
